Experimental findings from patent US6627651B1, “Cyclic compounds and uses thereof” (Takeda Chemical Industries, Ltd., priority 1999, dated 2003) are described below.

Broadly, the melting point is the temperature of the solid-liquid transition.

As for `Cc1ccc(-c2ccc3cc(C(=O)Nc4ccc(CN(C)C5CCOCC5)cc4)[nH]c3c2)cc1` [Compound 23, 6-(4-methylphenyl)-N-[4-[N-methyl-N-(tetrahydropyran-4-yl)aminomethyl]phenyl]-1H-indole-2-carboxamide], the melting point fell in the range of 246 to 250 °C.
The figure for `Cc1ccc(-c2ccc3c(c2)C=C(C(=O)NC2CCN(CC4CCCCC4)CC2)CCO3)cc1` [Compound 55, N-(1-cyclohexylmethylpiperidin-4-yl)-7-(4-methylphenyl)-2,3-dihydro-1-benzooxepine-4-carboxamide] is 180 to 181 °C.
With `CCOCCOc1ccc(COc2ccc3c(c2)C=C(C(=O)Nc2ccc(CN(C)C4CCOCC4)cc2)CCS3(=O)=O)cc1` [Compound 107, N-[4-[[N-methyl-N-(tetrahydropyran-4-yl)amino]methyl]phenyl]-7-[[4-(2-ethoxyethoxy)benzyl]oxy]-1,1-dioxo-2,3-dihydro-1-benzothiepine-4-carboxamide] the figure was 185 to 187 °C.
The molecule `COC(=O)N1CCN=C1Cc1ccc(NC(=O)C2=Cc3cc(-c4ccc(C)cc4)ccc3OCC2)cc1` [Compound 96, N-[4-[(1-methoxycarbonyl-2-imidazolin-2-yl)methyl]phenyl]-7-(4-methylphenyl)-2,3-dihydro-1-benzooxepine-4-carboxamide] had a melting point of 170 to 171 °C.
The molecule `Cc1ccc(-c2ccc3cc(C(=O)Nc4ccc(CN(C)C5CCOCC5)cc4)n(C)c3c2)cc1` [Compound 24, 1-methyl-6-(4-methylphenyl)-N-[4-[N-methyl-N-(tetrahydropyran-4-yl)aminomethyl]phenyl]-1H-indole-2-carboxamide] returned a melting point of 225 to 226 °C.
On to `Cc1ccc(-c2ccc3c(c2)CN(C(=O)Nc2ccc(C[N+]4(C)CCCCC4)cc2)CC3)cc1.[Cl-]`, for which the melting point is 179 to 180 °C (dec.).
The figure for `Cc1ccc(C2=Cc3cc(C(=O)N[C@H]4CC[C@H](CN(C)C5CCOCC5)CC4)ccc3OC2)cc1` [Compound 68, trans-3-(4-methylphenyl)-N-[4-[N-methyl-N-(tetrahydropyran-4-yl)aminomethyl]cyclohexyl]-2H-1-benzopyran-6-carboxamide] is 205 to 207 °C; for `CCNC(=N)c1ccc(NC(=O)C2=Cc3cc(-c4ccc(C)cc4)ccc3OCC2)cc1.Cl` it is greater than 300 °C; for `Cc1ccc(-c2cncc(/C=C/C(=O)N[C@H]3CC[C@H](CN(C)C4CCOCC4)CC3)c2)cc1` [Compound 73, (trans, E)-3-[5-(4-methylphenyl)pyridin-3-yl]-N-[4-[N-methyl-N-(tetrahydropyran-4-yl)aminomethyl]cyclohexyl]acrylamide] it is 233 to 236 °C.
The figure for `CCCOc1ccccc1CCCOc1ccc2c(c1)C=C(C(=O)Nc1ccc(CN(C)C3CCOCC3)cc1)CCS2(=O)=O` [Compound 119, N-[4-[[N-methyl-N-(tetrahydropyran-4-yl)amino]methyl]phenyl]-7-[3-(2-propoxyphenyl)propoxy]-1,1-dioxo-2,3-dihydro-1-benzothiepine-4-carboxamide] is 184 to 186 °C.
Molecule `COc1cccc(COc2ccc3c(c2)C=C(C(=O)Nc2ccc(CN(C)C4CCOCC4)cc2)CCS3(=O)=O)c1` [Compound 117, 7-(3-methoxybenzyloxy)-N-[4-[[N-methyl-N-(tetrahydropyran-4-yl)amino]methyl]phenyl]-1,1-dioxo-2,3-dihydro-1-benzothiepine-4-carboxamide] returned a melting point of 181 to 185 °C.
`C[N+]1(Cc2ccc(NC(=O)c3cccc(OCc4ccccc4)c3)cc2)CCCCC1.[I-]` [Compound 87, 1-[4-(3-benzyloxybenzoylamino)benzyl]-1-methylpiperidinium iodide] registered a melting point of 192 to 194 °C.
The molecule `Cc1ccc(COc2cccc(C(=O)Nc3ccc(CN4CCCCC4)cc3)c2)cc1` [Compound 85, 3-(4-methylbenzyloxy)-4′-(piperidinomethyl)benzanilide] had a melting point of 153 to 155 °C.
The figure for `CCOc1ccc(COc2ccc3c(c2)C=C(C(=O)Nc2ccc(CN(C)C4CCOCC4)cc2)CCS3(=O)=O)cc1OCC` [Compound 122, N-[4-[[N-methyl-N-(tetrahydropyran-4-yl)amino]methyl]phenyl]-7-(3,4-diethoxybenzyloxy)-1,1-dioxo-2,3-dihydro-1-benzothiepine-4-carboxamide] is 186 to 188 °C.
With `Cc1ccc(COc2cccc(/C=C/c3ccc(CN4CCCCC4)cc3)c2)cc1` [Compound 97, (E)-1-[4-[3-(4-methylbenzyloxy)styryl]benzyl]piperidine] the figure was 87 to 88 °C; with `CCCOCCOc1ccc(Oc2ccc3c(c2)C=C(C(=O)Nc2ccc(CN(C)C4CCOCC4)cc2)CCS3(=O)=O)cc1OCC` [Compound 114, 7-[3-ethoxy-4-(2-propoxyethoxy)phenoxy]-N-[4-[[N-methyl-N-(tetrahydropyran-4-yl)amino]methyl]phenyl]-1,1-dioxo-2,3-dihydro-1-benzothiepine-4-carboxamide], 159 to 160 °C; with `Cc1ccc(-c2coc(/C=C/C(=O)N[C@H]3CC[C@H](CN(C)C4CCOCC4)CC3)c2)cc1` [Compound 74, (trans, E)-3-[4-(4-methylphenyl)furan-2-yl]-N-[4-[N-methyl-N-(tetrahydropyran-4-yl)aminomethyl]cyclohexyl]acrylamide], 165 to 167 °C.
The figure for `CCCOCCOc1ccccc1COc1ccc2c(c1)C=C(C(=O)Nc1ccc(CN(C)C3CCOCC3)cc1)CCS2(=O)=O` [Compound 99, N-[4-[[N-methyl-N-(tetrahydropyran-4-yl)amino]methyl]phenyl]-7-[[2-(2-propoxyethoxy)benzyl]oxy]-1,1-dioxo-2,3-dihydro-1-benzothiepine-4-carboxamide] is 136 to 138 °C; for `Cc1ccc(-c2ccc3c(c2)C=C(CN2CCC(NC4CCOCC4)CC2)CCO3)cc1` [Compound 80, 1-(7-(4-methylphenyl)-2,3-dihydro-1-benzooxepin-4-yl)methyl-4-((tetrahydropyran-4-yl)amino)piperidine] it is 101 to 103 °C; for `CCCOc1cccc(Oc2ccc3c(c2)C=C(C(=O)Nc2ccc(CN(C)C4CCOCC4)cc2)CCS3(=O)=O)c1` [Compound 112, N-[4-[[N-methyl-N-(tetrahydropyran-4-yl)amino]methyl]phenyl]-7-(3-propoxyphenoxy)-1,1-dioxo-2,3-dihydro-1-benzothiepine-4-carboxamide] it is 143 to 144 °C.
As for `O=C(Nc1ccc(CN2CCCCC2)cc1)c1cccc(OCc2cccc3ccccc23)c1` [Compound 86, 3-(1-naphthylmethoxy)-4′-(piperidinomethyl)benzanilide], the melting point was 171 to 173 °C.
The figure for `Cc1ccc(-c2ccc3c(c2)C=C(C(=O)NC2CCN(C)CC2)CCO3)cc1` [Compound 61, N-(1-methylpiperidin-4-yl)-7-(4-methylphenyl)-2,3-dihydro-1-benzooxepine-4-carboxamide] is 180 to 182 °C.
Molecule `Cc1ccc(-c2ccc3c(c2)C=C(C(=O)Nc2ccc(C(=N)N)cc2)CCO3)cc1.Cl` registered a melting point of 294 to 296 °C.
Molecule `CCCOc1cccc(CCOc2ccc3c(c2)C=C(C(=O)Nc2ccc(CN(C)C4CCOCC4)cc2)CCS3(=O)=O)c1` [Compound 105, N-[4-[[N-methyl-N-(tetrahydropyran-4-yl)amino]methyl]phenyl]-7-[(3-propoxyphenethyl)oxy]-1,1-dioxo-2,3-dihydro-1-benzothiepine-4-carboxamide] registered a melting point of 153 to 154 °C.
The molecule `CCCOc1ccccc1CCOc1ccc2c(c1)C=C(C(=O)Nc1ccc(CN(C)C3CCOCC3)cc1)CCS2(=O)=O` [Compound 106, N-[4-[[N-methyl-N-(tetrahydropyran-4-yl)amino]methyl]phenyl]-7-[(2-propoxyphenethyl)oxy]-1,1-dioxo-2,3-dihydro-1-benzothiepine-4-carboxamide] came in with a melting point of 161 to 162 °C.
For `COc1ccccc1COc1ccc2c(c1)C=C(C(=O)Nc1ccc(CN(C)C3CCOCC3)cc1)CCS2(=O)=O` [Compound 102, 7-[(2-methoxybenzyl)oxy]-N-[4-[[N-methyl-N-(tetrahydropyran-4-yl)amino]methyl]phenyl]-1,1-dioxo-2,3-dihydro-1-benzothiepine-4-carboxamide], the melting point is 223 to 225 °C.
The figure for `CCOCCOc1ccccc1COc1ccc2c(c1)C=C(C(=O)Nc1ccc(CN(C)C3CCOCC3)cc1)CCS2(=O)=O` [Compound 104, 7-[[2-(2-ethoxyethoxy)benzyl]oxy]-N-[4-[[N-methyl-N-(tetrahydropyran-4-yl)amino]methyl]phenyl]-1,1-dioxo-2,3-dihydro-1-benzothiepine-4-carboxamide] is 132 to 136 °C; for `O=C(Nc1ccc(CN2CCCCC2)cc1)C1CCc2ccc(-c3ccccc3)cc2C1` (stereo not shown) [Compound 82, N-[4-(piperidinomethyl)phenyl]-7-phenyl-1,2,3,4-tetrahydronaphthalene-2-carboxamide] it is 185 to 187 °C.
The molecule `Cc1ccc(C2=Cc3cc(C(=O)Nc4ccc(CN(C)C5CCOCC5)cc4)ccc3OC2)cc1` [Compound 22, 3-(4-methylphenyl)-N-[4-[N-methyl-N-(tetrahydropyran-4-yl)aminomethyl]phenyl]-2H-1-benzopyran-6-carboxamide] returned a melting point of 230 to 235 °C.
With `Cc1ccc(-c2ccc3c(c2)C=C(C(=O)NC2CCN(Cc4ccccc4)CC2)CCO3)cc1` [Compound 58, N-(1-benzylpiperidin-4-yl)-7-(4-methylphenyl)-2,3-dihydro-1-benzooxepine-4-carboxamide] the figure was 161 to 162 °C (dec.); with `CCOCCCc1ccc(Oc2ccc3c(c2)C=C(C(=O)Nc2ccc(CN(C)C4CCOCC4)cc2)CCS3(=O)=O)cc1` [Compound 125, 7-[4-(3-ethoxypropyl)phenoxy]-N-[4-[[N-methyl-N-(tetrahydro-2H-pyran-4-yl)amino]methyl]phenyl]-1,1-dioxo-2,3-dihydro-1-benzothiepine-4-carboxamide], 156 to 157 °C.
